In PMC11315827 (Drugs in R&D, 2024):
Several values for one entry are separate records, joined by “and”; a condition that tells them apart may be missing. Equal values may be shown once.

Experiments:
TXK = molecular target: T1, TXK (Homo sapiens, UniProt P42681); experiment: Kinase screening assays
T1 sequence (P42681 1-527): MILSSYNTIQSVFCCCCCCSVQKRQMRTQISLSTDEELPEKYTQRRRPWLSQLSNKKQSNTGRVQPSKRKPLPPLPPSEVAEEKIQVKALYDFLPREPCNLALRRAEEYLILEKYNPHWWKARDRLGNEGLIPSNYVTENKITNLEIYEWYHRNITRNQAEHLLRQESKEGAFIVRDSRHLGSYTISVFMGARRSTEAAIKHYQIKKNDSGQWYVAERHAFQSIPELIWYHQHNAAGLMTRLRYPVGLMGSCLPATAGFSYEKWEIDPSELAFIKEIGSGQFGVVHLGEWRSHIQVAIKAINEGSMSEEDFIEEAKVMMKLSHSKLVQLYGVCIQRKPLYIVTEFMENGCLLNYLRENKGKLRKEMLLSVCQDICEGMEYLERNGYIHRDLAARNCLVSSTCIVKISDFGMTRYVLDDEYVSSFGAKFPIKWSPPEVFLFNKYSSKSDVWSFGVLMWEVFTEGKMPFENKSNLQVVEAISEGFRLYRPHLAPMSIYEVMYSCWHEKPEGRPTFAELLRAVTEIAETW

[1] = Nonhuman primate PK study, plasma and CSF; details: for unbound partition coefficient Kp,uu CSF: based on plasma free fractions; for half-life / Cmax: male, cynomolgus monkey, in vivo, po; for Cmax: plasma Cmax
BLK = BLK (Homo sapiens, UniProt P51451); experiment: Kinase screening assays
BMX = molecular target: T2, BMX (Homo sapiens, UniProt P51813); experiment: Kinase screening assays
T2 sequence (P51813 1-675): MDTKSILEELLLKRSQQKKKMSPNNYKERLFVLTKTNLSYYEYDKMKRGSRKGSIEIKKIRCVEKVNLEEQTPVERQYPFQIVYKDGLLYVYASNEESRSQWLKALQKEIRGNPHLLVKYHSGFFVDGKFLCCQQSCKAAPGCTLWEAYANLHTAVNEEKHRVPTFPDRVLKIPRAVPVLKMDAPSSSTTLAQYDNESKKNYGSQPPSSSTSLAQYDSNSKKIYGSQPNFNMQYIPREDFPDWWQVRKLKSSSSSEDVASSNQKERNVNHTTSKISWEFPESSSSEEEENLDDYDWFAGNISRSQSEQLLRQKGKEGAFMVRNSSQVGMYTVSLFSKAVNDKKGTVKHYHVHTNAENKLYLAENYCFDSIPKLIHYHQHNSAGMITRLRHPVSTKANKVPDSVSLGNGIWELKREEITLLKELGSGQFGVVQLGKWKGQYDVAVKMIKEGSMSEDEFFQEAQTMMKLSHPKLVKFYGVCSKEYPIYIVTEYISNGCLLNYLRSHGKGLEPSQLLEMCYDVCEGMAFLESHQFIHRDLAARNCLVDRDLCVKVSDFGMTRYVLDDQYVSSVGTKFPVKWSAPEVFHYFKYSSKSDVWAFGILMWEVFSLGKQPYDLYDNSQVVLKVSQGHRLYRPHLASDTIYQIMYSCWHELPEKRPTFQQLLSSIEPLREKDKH

BTK = BTK (Homo sapiens, UniProt Q06187); details: "reported as"; cited from earlier work
[2] = tested on: Ramos cell expression of CD69 (BTK signaling); experiment: cells; details: Homo sapiens, 18 h, read-out: apparent IC50 (CD69 expression)

Sequence of BLK (P51451 whole entry, species assumed): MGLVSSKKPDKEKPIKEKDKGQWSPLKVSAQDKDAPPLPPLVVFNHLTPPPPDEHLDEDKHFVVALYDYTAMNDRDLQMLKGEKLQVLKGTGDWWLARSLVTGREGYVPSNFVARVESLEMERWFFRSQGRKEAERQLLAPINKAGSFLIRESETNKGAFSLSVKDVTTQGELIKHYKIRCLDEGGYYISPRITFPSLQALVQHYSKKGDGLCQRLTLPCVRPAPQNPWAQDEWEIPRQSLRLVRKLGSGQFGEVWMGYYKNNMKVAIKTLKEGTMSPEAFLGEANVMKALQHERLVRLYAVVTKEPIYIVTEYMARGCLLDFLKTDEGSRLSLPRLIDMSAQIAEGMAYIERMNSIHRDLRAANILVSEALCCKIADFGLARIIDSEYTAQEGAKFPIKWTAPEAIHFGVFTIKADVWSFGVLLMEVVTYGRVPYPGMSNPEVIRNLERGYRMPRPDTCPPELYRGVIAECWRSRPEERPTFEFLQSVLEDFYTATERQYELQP
Sequence of BTK (Q06187 whole entry): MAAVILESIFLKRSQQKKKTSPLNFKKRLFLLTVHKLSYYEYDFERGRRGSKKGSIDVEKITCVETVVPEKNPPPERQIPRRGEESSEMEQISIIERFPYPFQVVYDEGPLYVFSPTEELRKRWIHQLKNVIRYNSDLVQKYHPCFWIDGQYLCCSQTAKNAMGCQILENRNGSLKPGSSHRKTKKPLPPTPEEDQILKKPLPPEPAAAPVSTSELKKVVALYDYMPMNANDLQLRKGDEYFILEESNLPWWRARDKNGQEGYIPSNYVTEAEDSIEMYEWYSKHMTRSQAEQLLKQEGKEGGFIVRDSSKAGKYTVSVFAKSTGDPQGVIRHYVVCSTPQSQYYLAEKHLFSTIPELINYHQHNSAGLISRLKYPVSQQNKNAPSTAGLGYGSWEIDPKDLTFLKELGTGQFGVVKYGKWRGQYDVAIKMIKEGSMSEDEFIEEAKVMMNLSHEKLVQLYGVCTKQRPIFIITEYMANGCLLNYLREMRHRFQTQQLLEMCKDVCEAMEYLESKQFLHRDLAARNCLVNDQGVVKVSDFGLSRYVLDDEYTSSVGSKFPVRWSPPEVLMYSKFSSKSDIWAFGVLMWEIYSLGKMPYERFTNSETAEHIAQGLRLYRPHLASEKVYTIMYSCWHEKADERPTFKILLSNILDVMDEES

| IC50 (TXK) [nM] | CSF Cmax ([1]; CSF, oral 10 mg/kg) [nM] | CSF exposure (Cmax) ([1]; CSF, oral 10 mg/kg, 10 mg/kg) [ng/mL] | unbound partition coefficient Kp,uu CSF [1] | half-life ([1]; 10 mg/kg) [h] | Cmax ([1]; 10 mg/kg, oral 10 mg/kg) | IC50 (BLK) [nM] | IC50 (BMX) [nM] | terminal t1/2 for elimination ([1]; plasma, oral 10 mg/kg) | IC50 [2] [nM] | SMILES | dissociation rate (BTK) [s⁻¹] |
| --- | --- | --- | --- | --- | --- | --- | --- | --- | --- | --- | --- |
| ≤ 4 | 9.6 | 4.4 | 0.397 | ~4 | 103 ng/mL and 226 nM | ≤ 4 | ≤ 4 | – | – | C=CC(=O)N1CCC[C@@H](n2c(=O)n(-c3ccc(Oc4ccccc4)cc3)c3c(N)nccc32)C1 [Tolebrutinib] | – |
| – | – | – | 0.131 | ~4 | 287 ng/mL and 669 nM | – | – | – | – | C=CC(=O)N1CCC(CNc2ncnc(N)c2-c2ccc(Oc3ccccc3)cc2)CC1 [Evobrutinib] | – |
| – | – | – | 0.147 | – | 553 ng/mL and 853 nM | – | – | slightly prolonged | 19.8 | C[C@H]1CN(C2COC2)CCN1c1ccc(Nc2cc(-c3ccnc(N4CCn5c(cc6c5CC(C)(C)C6)C4=O)c3CO)cn(C)c2=O)nc1 [Fenebrutinib] | 1.52e-05 |
